Measurements reported in paper PMC3871589, “Evaluation of STAT3 Signaling in ALDH+ and ALDH+/CD44+/CD24− Subpopulations of Breast Cancer Cells” (PLoS ONE, 2013).

Columns and labels:
[1] = tested on: STAT3 target genes; assay: RT-PCR of STAT3 downstream target genes in ALDH+ cells; format: cell-based, human; details: 5 µM, 24 h
Procedure: The ALDH^+ and ALDH^+/CD44^+/CD24^− subpopulations of breast cancer cells were treated with LLL12 (5 µM) or DMSO for 24 h. RNA from the cells was then collected using RNeasy Kits (Qiagen). cDNA was constructed from a 500 ng sample of RNA using Omniscript RT (Qiagen). Primer sequences and source information can be found in Table S1. The intensity of bands was quantified and normalized to GAPDH.

[2] = molecular target: ErB2/HER2 (Homo sapiens, UniProt P04626); details: read-out: IC50 on ErB2/HER2; bound stated jointly for the other protein kinases; Table S3
Procedure: (§1) The effects of LLL12 on twenty six purified human protein kinases were performed at the Millipore UK Limited (Dundee, UK) and Reaction Biology Corp. (Malvern, PA) using the Kinase profiler assay. Assays contained a peptide substrate, purified recombinant human protein kinases to be tested, and gamma-labeled ATP, magnesiumion. Radioactive phosphorylated product was measured and quantitated via a scintillation counter.

[3] = molecular target: Bmx (Homo sapiens, UniProt P51813); assay: Kinase profiler assay, Bmx; format: biochemical; details: 10 concentrations, 100 µM highest; Table S3
Procedure: as §1

[4] = tested on: STAT3 phosphorylation (Y705); assay: Western blot of STAT3 phosphorylation in un-separated breast cancer cells; format: cell-based, human; details: un-separated MDA-MB-231, SK-BR-3, SUM159 cells, 10 µM, 24 hours
Procedure: (§2) After sorting by flow cytometry, ALDH^+ and ALDH^+/CD44^+/CD24^− stem-like cells were cultured in serum-free stem cell medium in ultra-low attachment six-well plates (Corning) to maintain cancer stem cell characteristics. ALDH^−, ALDH^−/CD44^+/CD24^+cells and un-separated cells were cultured in regular medium and replaced with identical stem cell medium for three days before being harvested. To assess the effects of STAT3 inhibitors, ALDH^+ and ALDH^+/CD44^+/CD24^− subpopulations of breast cancer cells were treated with LLL12 (5 µmol/L) of or static (10 µmol/L) for 24 hours. STAT3, or control GFP shRNA lentivirus (CTL ShRNA) was introduced into ALDH^+ breast cancer stem-like cells for 48 hours, then followed by selection with puromycin (0.2 µg/ml) for 72 hours. Antibodies (Cell Signaling Tech.) against phospho-specific STAT3 (Tyrosine 705) (P-STAT3, Y705), ERK1/2 (Threonine 202/Tyrosine 204), cleaved Poly (ADP-ribose) polymerase (PARP), ALDH1, cleaved caspase-3, and GAPDH were used for western blots.
LLL12 was synthesized in Dr. Pui-Kai Li’s laboratory (College of Pharmacy, The Ohio State University). Un-separated cells were treated with 10 µM of LLL12 or DMSO for 24 hours, and the phosphorylation of STAT3 (Y705), and ERK 1/2 (T202/Y204), and expression of STAT3 downstream genes, cleaved caspase-3, and PARP were detected by Western blots. (JPG) Click here for additional data file.

[5] = tested on: STAT3; details: cited from earlier work
[6] = tested on: ALDH+ subpopulation from MDA-MB-231, SUM159, and SK-BR3 cells; assay: MTT cell viability assay, ALDH+ subpopulation; format: cell-based, human; details: 1 to 10 µmol/L 72 hours, ShRNA 48 hours
Procedure: The breast cancer cells were seeded in 96-well plates (3,000 cells/well) in triplicates in a serum-free mammary epithelial basal medium. The following day, cancer cells were treated with 1 to 10 µmol/L of LLL12 or Stattic for 72 hours, STAT3 ShRNA or control GFP shRNA lentivirus (CTL ShRNA) for 48 hours. MTT (Thiazolyl Blue Tetrazolium Bromide, Sigma-Aldrich) assay was used to determine the cell viability.

[7] = molecular target: Met (Homo sapiens, UniProt P08581); assay: Kinase profiler assay, Met; format: biochemical; details: bound stated jointly for the other protein kinases; Table S3
Procedure: as §1

[8] = tested on: MDA-MB-231 ALDH+ breast cancer stem-like cells; assay: Mouse xenograft of MDA-MB-231 ALDH+ breast cancer stem-like cells; format: in vivo, NOD/SCID mice; details: 5 mg/kg IP daily
Procedure: All animal studies were conducted in accordance with the principles and standard procedures approved by IACUC at the Research Institute at Nationwide Children’s Hospital and the University Committee on the Use and Care of Animals at the University of Michigan. ALDH^+ subpopulations of MDA-MB-231 and ALDH^+/CD44^+/CD24^− subpopulations of SUM-159 breast cancer cells (1×10^5) respectively were injected subcutaneous (s.c.) into the flank area of female Non-obese diabetic (NOD)/Severe combined immunodeficiency (SCID) mice which were purchased from Jackson Laboratory.

[9] = tested on: ALDH1; assay: ALDH1 protein expression in ALDH+ cells; format: cell-based, human
Procedure: as §2

[10] = molecular target: JAK2 (Homo sapiens, UniProt O60674); assay: Kinase profiler assay, JAK2; format: biochemical; details: 10 concentrations, 100 µM highest; Table S3
Procedure: as §1

[11] = tested on: STAT3 phosphorylation (Y705); assay: Western blot of STAT3 phosphorylation in ALDH+ cells; format: cell-based, human; details: LLL12 5 µmol/L or Stattic 10 µmol/L 24 hours, ShRNA 48 hours then puromycin
Procedure: (§3) The ALDEFLUOR kit (StemCell Technologies) was used to isolate the population with high ALDH enzymatic activity as previously described. Briefly, cells were trypsinized to single cells using 0.05% trypsin and subsequently suspended in ALDEFLUOR assay buffer containing ALDH substrate (BAAA, 1 µmol/l per 1×10^6 cells) and then incubated for 40 minutes at 37°C. For each sample, an aliquot of cells was stained under identical conditions with 15 mmol/L diethylaminobenzaldehyde (DEAB), a specific ALDH inhibitor, as an ALDH^− control. Anti-human PE-CD24 and PE-Cy5-CD44 antibody (BioLegend) were used for CD44/CD24 identification and to separate ALDH^+/CD44^+/CD24^− and ALDH^−/CD44^+/CD24^+ cells when combined with ALDH staining. Analysis was performed using a FACStarPLUS (Becton Dickinion) flow cytometer. To assess the effect of STAT3 inhibitors on the subpopulation of ALDH^+ cells, un-separated breast cancer cells were treated with 5 µmol/L of LLL12 or 10 µmol/L Stattic for 24 hours prior to performing the ALDEFLUOR assay.
(§4) After sorting by flow cytometry, ALDH^+ and ALDH^+/CD44^+/CD24^− stem-like cells were cultured in serum-free stem cell medium in ultra-low attachment six-well plates (Corning) to maintain cancer stem cell characteristics. […]

[12] = molecular target: mTOR (Homo sapiens, UniProt P42345); assay: Kinase profiler assay, mTOR; format: biochemical; details: bound stated jointly for the other protein kinases; Table S3
Procedure: as §1

[13] = tested on: STAT3 phosphorylation; assay: Western blot of STAT3 phosphorylation in ALDH+/CD44+/CD24− cells; format: cell-based, human; details: ALDH+/CD44+/CD24− subpopulation of MDA-MB-231 and SUM159; 0.5–5 µM
Procedure: as §3, §4

Sequence of Met (P08581 25-1390): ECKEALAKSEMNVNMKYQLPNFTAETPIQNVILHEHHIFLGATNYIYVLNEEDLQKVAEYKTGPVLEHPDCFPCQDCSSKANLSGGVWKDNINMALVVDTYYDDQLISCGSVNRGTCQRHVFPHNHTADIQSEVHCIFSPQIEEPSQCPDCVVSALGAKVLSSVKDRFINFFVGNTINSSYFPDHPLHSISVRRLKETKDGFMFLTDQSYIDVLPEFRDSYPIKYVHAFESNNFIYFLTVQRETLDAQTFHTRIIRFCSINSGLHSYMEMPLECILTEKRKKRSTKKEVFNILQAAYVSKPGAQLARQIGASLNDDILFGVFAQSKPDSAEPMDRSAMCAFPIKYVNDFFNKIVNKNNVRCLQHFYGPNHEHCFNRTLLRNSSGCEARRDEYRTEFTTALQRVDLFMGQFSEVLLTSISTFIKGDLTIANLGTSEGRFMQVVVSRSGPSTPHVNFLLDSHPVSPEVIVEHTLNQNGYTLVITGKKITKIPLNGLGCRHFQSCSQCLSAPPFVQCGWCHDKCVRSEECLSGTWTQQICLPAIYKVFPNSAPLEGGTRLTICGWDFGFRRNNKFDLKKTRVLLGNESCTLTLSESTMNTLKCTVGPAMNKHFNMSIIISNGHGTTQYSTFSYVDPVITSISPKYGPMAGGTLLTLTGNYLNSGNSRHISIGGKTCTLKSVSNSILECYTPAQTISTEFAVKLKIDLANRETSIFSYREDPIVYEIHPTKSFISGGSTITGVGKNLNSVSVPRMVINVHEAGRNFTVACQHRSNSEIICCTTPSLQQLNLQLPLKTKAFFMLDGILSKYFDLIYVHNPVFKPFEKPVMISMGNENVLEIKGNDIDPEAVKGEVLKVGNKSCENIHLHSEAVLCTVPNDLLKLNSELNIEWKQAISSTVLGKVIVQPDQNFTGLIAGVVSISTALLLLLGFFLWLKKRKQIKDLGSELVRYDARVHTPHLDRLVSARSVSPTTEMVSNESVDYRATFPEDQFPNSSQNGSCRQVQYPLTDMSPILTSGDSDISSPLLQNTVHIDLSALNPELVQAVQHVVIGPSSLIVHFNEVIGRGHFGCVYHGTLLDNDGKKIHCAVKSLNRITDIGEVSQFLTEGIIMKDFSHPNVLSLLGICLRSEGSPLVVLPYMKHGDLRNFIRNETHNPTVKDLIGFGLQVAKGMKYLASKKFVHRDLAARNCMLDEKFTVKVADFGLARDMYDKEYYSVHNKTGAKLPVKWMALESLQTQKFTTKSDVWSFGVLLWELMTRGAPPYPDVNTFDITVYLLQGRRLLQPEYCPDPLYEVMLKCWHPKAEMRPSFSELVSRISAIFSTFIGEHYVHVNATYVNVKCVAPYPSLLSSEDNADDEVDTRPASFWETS
Sequence of ErB2/HER2 (P04626 23-1255): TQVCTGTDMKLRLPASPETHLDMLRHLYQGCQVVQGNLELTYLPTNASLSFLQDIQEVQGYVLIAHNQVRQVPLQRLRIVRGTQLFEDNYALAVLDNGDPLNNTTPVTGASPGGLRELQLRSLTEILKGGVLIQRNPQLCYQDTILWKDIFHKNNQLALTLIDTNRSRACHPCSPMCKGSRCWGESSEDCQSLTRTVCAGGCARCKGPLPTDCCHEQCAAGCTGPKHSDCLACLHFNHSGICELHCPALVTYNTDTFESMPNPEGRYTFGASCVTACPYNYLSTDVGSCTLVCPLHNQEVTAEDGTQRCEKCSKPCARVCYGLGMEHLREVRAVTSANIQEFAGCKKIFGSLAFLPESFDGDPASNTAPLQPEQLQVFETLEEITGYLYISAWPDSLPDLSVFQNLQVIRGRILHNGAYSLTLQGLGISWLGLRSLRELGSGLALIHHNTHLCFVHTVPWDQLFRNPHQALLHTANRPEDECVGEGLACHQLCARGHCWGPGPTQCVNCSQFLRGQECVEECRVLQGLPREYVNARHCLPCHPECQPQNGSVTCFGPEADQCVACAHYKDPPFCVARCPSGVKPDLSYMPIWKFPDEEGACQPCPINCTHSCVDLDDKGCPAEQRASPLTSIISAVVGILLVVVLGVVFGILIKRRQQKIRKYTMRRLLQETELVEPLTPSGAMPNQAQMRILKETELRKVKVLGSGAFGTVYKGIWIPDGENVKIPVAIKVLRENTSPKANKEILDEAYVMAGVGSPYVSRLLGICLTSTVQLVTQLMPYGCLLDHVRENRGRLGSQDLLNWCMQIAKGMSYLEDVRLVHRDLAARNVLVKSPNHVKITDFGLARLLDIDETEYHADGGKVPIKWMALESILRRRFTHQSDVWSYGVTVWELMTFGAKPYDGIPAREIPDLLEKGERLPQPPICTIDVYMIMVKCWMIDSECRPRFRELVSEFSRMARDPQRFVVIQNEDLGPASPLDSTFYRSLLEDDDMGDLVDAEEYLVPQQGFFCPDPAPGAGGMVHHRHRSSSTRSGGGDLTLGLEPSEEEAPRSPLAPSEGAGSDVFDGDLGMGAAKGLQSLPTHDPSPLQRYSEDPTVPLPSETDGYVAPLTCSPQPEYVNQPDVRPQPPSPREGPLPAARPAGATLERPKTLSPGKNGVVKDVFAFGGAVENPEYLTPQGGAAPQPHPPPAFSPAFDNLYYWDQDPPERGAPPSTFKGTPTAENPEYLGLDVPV
Sequence of Bmx (P51813 whole entry): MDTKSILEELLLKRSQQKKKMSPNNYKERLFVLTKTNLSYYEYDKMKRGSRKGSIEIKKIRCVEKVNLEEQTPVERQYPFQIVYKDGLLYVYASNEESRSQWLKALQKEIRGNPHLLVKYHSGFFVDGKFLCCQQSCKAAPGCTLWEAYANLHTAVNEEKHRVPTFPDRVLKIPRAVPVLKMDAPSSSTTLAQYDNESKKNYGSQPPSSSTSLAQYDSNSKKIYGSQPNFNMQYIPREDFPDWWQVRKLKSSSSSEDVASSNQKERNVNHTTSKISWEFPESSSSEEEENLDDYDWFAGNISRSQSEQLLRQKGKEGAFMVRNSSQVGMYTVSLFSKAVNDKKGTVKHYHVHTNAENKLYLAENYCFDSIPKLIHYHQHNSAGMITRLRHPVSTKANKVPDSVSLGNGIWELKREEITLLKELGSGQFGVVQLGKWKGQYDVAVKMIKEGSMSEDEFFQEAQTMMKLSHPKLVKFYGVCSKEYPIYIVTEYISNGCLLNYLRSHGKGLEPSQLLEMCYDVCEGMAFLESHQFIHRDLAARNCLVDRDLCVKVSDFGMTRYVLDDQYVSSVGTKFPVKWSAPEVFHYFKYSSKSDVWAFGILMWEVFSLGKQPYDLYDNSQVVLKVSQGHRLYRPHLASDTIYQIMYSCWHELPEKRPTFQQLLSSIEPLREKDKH
Sequence of JAK2 (O60674 whole entry): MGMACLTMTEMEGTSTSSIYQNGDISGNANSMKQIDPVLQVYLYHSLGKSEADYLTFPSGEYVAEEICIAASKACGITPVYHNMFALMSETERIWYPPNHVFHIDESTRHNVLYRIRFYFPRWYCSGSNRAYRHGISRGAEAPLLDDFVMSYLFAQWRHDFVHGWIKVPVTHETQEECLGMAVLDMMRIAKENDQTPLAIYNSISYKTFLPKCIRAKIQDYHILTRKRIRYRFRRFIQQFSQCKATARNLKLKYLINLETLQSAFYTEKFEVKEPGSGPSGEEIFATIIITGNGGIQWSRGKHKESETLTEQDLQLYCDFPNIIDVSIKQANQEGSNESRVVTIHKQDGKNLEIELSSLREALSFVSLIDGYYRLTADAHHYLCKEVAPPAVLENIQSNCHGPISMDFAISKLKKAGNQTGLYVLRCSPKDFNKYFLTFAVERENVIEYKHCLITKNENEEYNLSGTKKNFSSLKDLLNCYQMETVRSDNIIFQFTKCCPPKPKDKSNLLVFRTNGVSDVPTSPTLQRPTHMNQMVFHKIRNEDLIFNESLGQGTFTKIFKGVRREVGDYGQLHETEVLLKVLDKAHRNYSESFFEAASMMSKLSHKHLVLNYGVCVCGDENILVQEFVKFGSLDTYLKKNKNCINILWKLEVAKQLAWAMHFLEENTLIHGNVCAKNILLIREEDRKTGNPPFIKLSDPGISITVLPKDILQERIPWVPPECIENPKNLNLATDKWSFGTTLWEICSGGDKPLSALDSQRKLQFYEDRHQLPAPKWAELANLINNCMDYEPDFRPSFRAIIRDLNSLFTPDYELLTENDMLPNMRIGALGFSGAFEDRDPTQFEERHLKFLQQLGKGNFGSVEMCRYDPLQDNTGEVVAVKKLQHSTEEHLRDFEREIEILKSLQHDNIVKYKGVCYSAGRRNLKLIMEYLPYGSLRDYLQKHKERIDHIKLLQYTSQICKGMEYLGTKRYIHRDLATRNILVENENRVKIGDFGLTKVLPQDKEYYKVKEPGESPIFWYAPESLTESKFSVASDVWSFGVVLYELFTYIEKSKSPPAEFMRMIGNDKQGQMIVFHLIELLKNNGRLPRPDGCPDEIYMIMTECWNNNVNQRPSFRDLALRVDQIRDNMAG

With `NS(=O)(=O)c1cccc2c1C(=O)c1cccc(O)c1C2=O` [LLL12] as the compound, how does the “expression of STAT3 target genes Cyclin D1, survivin, Bcl-2, Bcl-XL, MMP-2, and MMP-9” value ([1]; ALDH+ breast cancer cells) read?
Its value is “down-regulated”.

What about the “Twist1, Notch-1, and Notch-3 expression” value ([1]; ALDH+ breast cancer stem-like cells) of the same compound?
The value was “inhibited”.

What about the IC50 [2] of the same compound?
Its IC50 is at least 77.9 µM.

And the IC50 [3]?
The IC50 was over 100 µM.

What about the STAT3 phosphorylation [4] of the same compound?
The STAT3 phosphorylation was “inhibited”.

What about the “STAT3 DNA binding activity” value [5] of the same compound?
The value was “inhibited”.

And the “cell viability of the ALDH+ subpopulation” value [6]?
The value was “inhibit”.

And the IC50 [7]?
The IC50 was at least 77.9 µM.

What about the tumor volume ([8]; 15 days, P<0.05 vs vehicle) of the same compound?
The tumor volume was “significantly suppressed”.

What about the tumor weight ([8]; 15 days, P<0.05 vs vehicle) of the same compound?
The tumor weight was “significantly suppressed”.

And the “P-STAT3 in tumor tissue” value ([8]; Western blot of tumors)?
The value was “decreased”.

What about the “cleaved caspase-3 in tumor tissue” value ([8]; Western blot of tumors) of the same compound?
Its value is “increased”.

And the “expression of ALDH1 protein” value [9]?
The value was “down-regulated”.

And the IC50 [10]?
Its IC50 is over 100 µM.

What about the “STAT3 phosphorylation in ALDH+ cells” value [11] of the same compound?
The value was “inhibited”.

And the IC50 [12]?
Its IC50 is at least 77.9 µM.

And the STAT3 phosphorylation [13]?
Its STAT3 phosphorylation is “inhibited”.
